The values below come from patent publication US10501495B2, “Antimicrobial surface” (The University of Birmingham, priority 2014, dated 2019).

In data set [1] the test system is P. aeruginosa. It counts as cell-based. The method, then:
(§1) The antibacterial activity of various amino acid sequences was tested against S. aureus, P. aeruginosa and E. coli.

The test system of data set [2] is E. coli. It counts as cell-based. The method, then:
as §1

The subject of data set [3] is S. aureus. Format: cell-based. As to the method: as §1
Data set [4] is described as follows: Further release studies of linker-FITC peptides from surface under different temperatures and pH. Format: physicochemical. As to the method: Further release studies were carried out to ascertain the strength of adherence of the peptides RKLPDA (SEQ ID NO: 12), RKLPDARKLPDA (SEQ ID NO: 13) and EEEEEEE (SEQ ID NO: 14) to the surface under different temperatures and pH. Each peptide comprised a linker-FITC sequence for fluorescence. Surfaces were coated with peptide as described for FIG. 1. The peptide-coated disks were incubated in PBS or in a balanced buffer at a set pH. Aliquots of the solution surrounding the surface were taken out at set time points and the fluorescence of the peptide in the solution monitored to establish the rate of peptide diffusion from the disk into the surrounding solution.

Data set [5] can be described thus: Release study of FITC peptide from hydroxyapatite disk into PBS (fluorescence). Format: physicochemical. The method, then:
A release study was carried out to ascertain the strength of adherence of the DDDDDDD (SEQ ID NO: 15)-Linker-FITC peptide to the hydroxyapatite surface. Disks of hydroxyapatite were incubated in 1 mg/ml peptide solutions for 1 hour and then washed thoroughly with PBS. The disk was then placed into a cuvette and surrounded with PBS solution (2 ml). The fluorescence of the solution around the disk was measured to ascertain the rate of peptide diffusion from the disk into the surrounding solution.

Data set [6] is described as follows: Binder-surface adherence of FITC-labelled binder peptide, fluorescence microscopy. It counts as physicochemical. The settings on record: hydroxyapatite disks and titanium squares, pH 7, room temperature, washed before imaging. From the text: This work established that the binder peptides interact with the surfaces
The mark [7] stands for this setting: room temperature, balanced buffer pH 9 (FIG. 5).
The mark [8] stands for this setting: room temperature, balanced pH 7 buffer (FIG. 4).

Converted amounts (≈) assume the structure as drawn. Where a SMILES comes first, the peptide text is derived from it. Primed or numbered codes have the meaning given here. Where no end group is shown, it is not given here. Linker = not defined here; FITC′ = not defined here

In the case of RRIYGRGYIRR [RRIYGRGYIRR], in data set [1], the “Minimum inhibitory concentration (MIC) P. aeruginosa” value came to 2500 µg/mL. Moreover, the “Minimum inhibitory concentration (MIC) E. coli” value in data set [2] amounted to 1250 µg/mL. For the same compound, in data set [3], the “Minimum inhibitory concentration (MIC) S. aureus” value was determined as 2500 µg/mL.
Take RRIYGRGYIRRRKLPDA [RRIYGRGYIRRRKLPDA]: the “Minimum inhibitory concentration (MIC) P. aeruginosa” value in data set [1] amounted to 10000 µg/mL. In addition, the “Minimum inhibitory concentration (MIC) E. coli” value in data set [2] stood at 5000 µg/mL. The “Minimum inhibitory concentration (MIC) S. aureus” value in data set [3] worked out at 10000 µg/mL.
Regarding `N=C(N)NCCC[C@H](NC(=O)[C@H](CCCNC(=N)N)NC(=O)[C@H](CCCNC(=N)N)NC(=O)[C@H](CCCNC(=N)N)NC(=O)[C@H](CCCNC(=N)N)NC(=O)[C@@H](N)CCCNC(=N)N)C(=O)O` [RRRRRR], in data set [1], the “Minimum inhibitory concentration (MIC) P. aeruginosa” value is 39 µg/mL (≈ 0.0408 mM) and the “efficacy against P. aeruginosa (in words)” value was “surprisingly high efficacy”. In addition, in data set [2], the “Minimum inhibitory concentration (MIC) E. coli” value worked out at 2500 µg/mL (≈ 2.62 mM). Moreover, in data set [3], the “Minimum inhibitory concentration (MIC) S. aureus” value was 5000 µg/mL (≈ 5.23 mM).
With `CC(C)C[C@H](NC(=O)CNC(=O)[C@H](CS)NC(=O)[C@@H](NC(=O)CN)[C@@H](C)O)C(=O)N1CCC[C@H]1C(=O)NCC(=O)N[C@H](C(=O)N[C@@H](CCCCN)C(=O)N[C@@H](CS)C(=O)N[C@@H](CS)C(=O)O)[C@@H](C)O` [GTCGLPGTKCC] (H-GTCGLPGTKCC-OH; N-terminus and C-terminus assumed), the “Minimum inhibitory concentration (MIC) P. aeruginosa” value in data set [1] worked out at 5000 µg/mL (≈ 4.81 mM). In addition, the “Minimum inhibitory concentration (MIC) E. coli” value in data set [2] worked out at 10000 µg/mL (≈ 9.62 mM). Further, the “Minimum inhibitory concentration (MIC) S. aureus” value in data set [3] is 5000 µg/mL (≈ 4.81 mM).
As for “RKLPDARKLPDA (also: linker-FITC, site not given here)”, the “release of peptide from surface” value in data set [4] (setting [7]) and in data set [4] (setting [8]) was “not released” in each case.
For RLYLRIGRR [RLYLRIGRR], in data set [1], the “Minimum inhibitory concentration (MIC) P. aeruginosa” value amounted to 2000 µg/mL. The “Minimum inhibitory concentration (MIC) E. coli” value in data set [2] turned out to be 250 µg/mL. In addition, the “Minimum inhibitory concentration (MIC) S. aureus” value in data set [3] is 500 µg/mL.
On to GTCIYQRLNAF [GTCIYQRLNAF], for which the “Minimum inhibitory concentration (MIC) P. aeruginosa” value in data set [1] came to 10000 µg/mL. Also, the “Minimum inhibitory concentration (MIC) E. coli” value in data set [2] turned out to be 10000 µg/mL. Moreover, the “Minimum inhibitory concentration (MIC) S. aureus” value in data set [3] worked out at 10000 µg/mL.
For the compound “RKLPDA (also: linker-FITC, site not given here)”, the “Minimum inhibitory concentration (MIC) P. aeruginosa” value in data set [1] is listed as “none”. The “Minimum inhibitory concentration (MIC) E. coli” value in data set [2] is reported as “none”. Besides, in data set [3], the “Minimum inhibitory concentration (MIC) S. aureus” value is listed as “none”. Also, the “release of peptide from surface” value in data set [4] (setting [7]) and in data set [4] (setting [8]) was “not released” each time.
As for “EEEEEEE (also: linker-FITC, site not given here)”, the “release of peptide from surface” value in data set [4] (4° C., pH 7 PBS (FIG. 3)) is recorded as “released”; in data set [4] (37° C., pH 7 PBS (FIG. 2)) it was “released”; in data set [4] (setting [7]), “released”; in data set [4] (setting [8]), “released”. The “release in comparison to RKLPDA and RKLPDARKLPDA” value in data set [4] (room temperature, pH 4 (FIG. 6)) is “Increased release”.
“RRIYGRGYIRREEEEEEEE [RRIYGRGYIRREEEEEEEE]”: in data set [1], the “Minimum inhibitory concentration (MIC) P. aeruginosa” value amounted to 10000 µg/mL. Moreover, the “Minimum inhibitory concentration (MIC) E. coli” value in data set [2] was found to be 5000 µg/mL. In data set [3], the “Minimum inhibitory concentration (MIC) S. aureus” value was determined as 5000 µg/mL.
Regarding EEEEEEEE, in data set [1], the “Minimum inhibitory concentration (MIC) P. aeruginosa” value was “none”. Also, the “Minimum inhibitory concentration (MIC) E. coli” value in data set [2] is recorded as “none”. Besides, the “Minimum inhibitory concentration (MIC) S. aureus” value in data set [3] was “none”.
Take “DDDDDDD (DDDDDDD-{Linker-FITC′}; not fully specified; reading uncertain)”: the “rate of release from hydroxyapatite into surrounding solution” value in data set [5] (disk incubated in 1 mg/ml peptide 1 hour, PBS 2 ml) is given as “fairly slow rate”. Also, the “time up to which increases in fluorescence (release) were observed” value in data set [5] (hydroxyapatite disk in PBS) is listed as “up to 10 hours”. The “adherence of FITC-labelled binder peptide to surfaces” value in data set [6] is listed as “adhered well to the surfaces”.
For the compound PACIGERRY [PACIGERRY], in data set [1], the “Minimum inhibitory concentration (MIC) P. aeruginosa” value was determined as 10000 µg/mL. The “Minimum inhibitory concentration (MIC) E. coli” value in data set [2] came to 10000 µg/mL. In addition, in data set [3], the “Minimum inhibitory concentration (MIC) S. aureus” value was 10000 µg/mL.
